According to PubChem BioAssay (NCI):
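Each compound was tested at five concentrations against cells in 96-well plates for 48 hours. GI50: concentration for 50% inhibition of growth. Definition used: TGI = concentration required for complete inhibition of growth.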

What was measured:
Assay in all cases: NCI-60 cell line screen, 48 h
[1] = test system: MDA-MB-468 breast
[2] = test system: HL-60(TB) leukemia
[3] = test system: UACC-257 melanoma
[4] = test system: MOLT-4 leukemia
[5] = test system: RPMI-8226 leukemia
[6] = test system: K-562 leukemia
[7] = test system: MDA-MB-231 breast
[8] = test system: SNB-19 CNS
[9] = test system: TK-10 renal
[10] = test system: HCT-116 colon
[11] = test system: BT-549 breast
[12] = test system: 786-0 renal
[13] = test system: SF-268 CNS
[14] = test system: NCI-H23 lung
[15] = test system: SF-539 CNS
[16] = test system: SK-MEL-5 melanoma
[17] = test system: NCI-H522 lung
[18] = test system: LOX IMVI melanoma
[19] = test system: SF-295 CNS
[20] = test system: MDA-MB-435
[21] = test system: U251 CNS
[22] = test system: A498 renal
[23] = test system: UACC-62 melanoma
[24] = test system: KM12 colon
[25] = test system: OVCAR-8 ovarian
[26] = test system: EKVX NSCLC
[27] = test system: HS 578T breast
[28] = test system: A549 NSCLC
[29] = test system: SK-OV-3 ovarian
[30] = test system: HOP-62 NSCLC
[31] = test system: OVCAR-3 ovarian
[32] = test system: RXF 393 renal
[33] = test system: HOP-92 NSCLC
[34] = test system: SK-MEL-28 melanoma
[35] = test system: COLO 205 colon
[36] = test system: CCRF-CEM leukemia
[37] = test system: HT29 colon
[38] = test system: DU-145 prostate
[39] = test system: HCC-2998 colon
[40] = test system: T-47D breast
[41] = test system: SN12C renal
[42] = test system: ACHN renal
[43] = test system: NCI-H460 lung
[44] = test system: OVCAR-4 ovarian
[45] = test system: MCF7 breast
[46] = test system: HCT-15 colon
[47] = test system: PC-3 prostate
[48] = test system: MALME-3M melanoma
[49] = test system: CAKI-1 renal
[50] = test system: SNB-75 CNS
[51] = test system: NCI-H226 lung
[52] = test system: IGROV1 ovarian
[53] = test system: UO-31 renal
[54] = test system: SR leukemia
[55] = test system: OVCAR-5 ovarian
[56] = test system: SW-620 colon
[57] = test system: M14 melanoma

SMILES: CCCCCCCCCCC(C[N+](C)(C)C/C=C/c1ccccc1)C(O)c1ccccc1 (centres undefined)
- GI50 [1]: 1.37 µM
- TGI [1]: 3.06 µM

SMILES: COc1ccc(/C=C\c2cc(OC)c(OC)c(OC)c2)cc1OC(=O)C(N)CCC(=O)O (centres undefined)
- TGI [1]: > 100 µM

SMILES: CCCCCNC(=O)[C@@H]1CCCN2C(=O)CC[C@H](NC(=O)[C@H](Cc3ccc(OP(=O)(O)O)cc3)NC(C)=O)C(=O)N12
- GI50 [1]: > 25 µM
- TGI [1]: > 25 µM

SMILES: CCC(C)(C)c1ccc(OCCCCN2CCN(c3ccncc3)CC2)cc1
- GI50 [2]: 1.93 µM
- TGI [2]: 4.42 µM
- GI50 [3]: 13.4 µM
- TGI [3]: 27.5 µM
- GI50 [4]: 4.63 µM
- TGI [4]: 24.4 µM
- GI50 [5]: 4.59 µM
- TGI [5]: 24.2 µM
- GI50 [6]: 1.98 µM
- TGI [6]: 11.2 µM
- GI50 [7]: 11 µM
- TGI [7]: 23.4 µM
- GI50 [8]: 11.3 µM
- TGI [8]: 23.6 µM
- GI50 [9]: 15.9 µM
- TGI [9]: 29.8 µM
- GI50 [10]: 4.65 µM
- TGI [10]: 16.3 µM
- GI50 [11]: 5.79 µM
- TGI [11]: 19.2 µM
- GI50 [12]: 7.54 µM
- TGI [12]: 20.1 µM
- GI50 [1]: 2.27 µM
- TGI [1]: 5.8 µM
- GI50 [13]: 15.3 µM
- TGI [13]: 31 µM
- GI50 [14]: 5.46 µM
- TGI [14]: 18.4 µM
- GI50 [15]: 5.15 µM
- TGI [15]: 18.2 µM
- GI50 [16]: 6.63 µM
- TGI [16]: 19.3 µM
- GI50 [17]: 15.6 µM
- TGI [17]: 31 µM
- GI50 [18]: 1.9 µM
- TGI [18]: 3.64 µM
- GI50 [19]: 4.02 µM
- TGI [19]: 15.3 µM
- GI50 [20]: 8.9 µM
- TGI [20]: 21.1 µM
- GI50 [21]: 5.92 µM
- TGI [21]: 19.4 µM
- GI50 [22]: 17.3 µM
- TGI [22]: 31.7 µM
- GI50 [23]: 13.5 µM
- TGI [23]: 26.4 µM
- GI50 [24]: 10.8 µM
- TGI [24]: 24.3 µM
- GI50 [25]: 14.1 µM
- TGI [25]: 32 µM
- GI50 [26]: 7.78 µM
- TGI [26]: 21.6 µM
- GI50 [27]: 13.8 µM
- TGI [27]: 38.8 µM
- GI50 [28]: 12.5 µM
- TGI [28]: 27.3 µM
- GI50 [29]: 14.7 µM
- TGI [29]: 29 µM
- GI50 [30]: 12.4 µM
- TGI [30]: 27 µM
- GI50 [31]: 11.2 µM
- TGI [31]: 24 µM
- GI50 [32]: 2.77 µM
- TGI [32]: 14.6 µM
- GI50 [33]: 1.97 µM
- TGI [33]: 15.6 µM
- GI50 [34]: 7.48 µM
- TGI [34]: 20.3 µM
- GI50 [35]: 2.14 µM
- TGI [35]: 4.03 µM
- GI50 [36]: 6.07 µM
- TGI [36]: 37.7 µM
- GI50 [37]: 3.45 µM
- TGI [37]: 14 µM
- GI50 [38]: 13.4 µM
- TGI [38]: 26.7 µM
- GI50 [39]: 2.29 µM
- TGI [39]: 5.48 µM
- GI50 [40]: 5.27 µM
- TGI [40]: 22.8 µM
- GI50 [41]: 13 µM
- TGI [41]: 26 µM
- GI50 [42]: 15 µM
- TGI [42]: 28.3 µM
- GI50 [43]: 10.1 µM
- TGI [43]: 24 µM
- GI50 [44]: 11.6 µM
- TGI [44]: 25 µM
- GI50 [45]: 3.08 µM
- TGI [45]: 10.7 µM
- GI50 [46]: 2.08 µM
- TGI [46]: 4.82 µM
- GI50 [47]: 5.29 µM
- TGI [47]: 25.4 µM
- GI50 [48]: 7.82 µM
- TGI [48]: 20.5 µM
- GI50 [49]: 13.9 µM
- TGI [49]: 27.5 µM
- GI50 [50]: 13.4 µM
- TGI [50]: 26.6 µM
- GI50 [51]: 11.5 µM
- TGI [51]: 25.3 µM
- GI50 [52]: 13.7 µM
- TGI [52]: 27.3 µM
- GI50 [53]: 12.2 µM
- TGI [53]: 24.7 µM
- GI50 [54]: 3.06 µM
- TGI [54]: 10.1 µM
- GI50 [55]: 12.7 µM
- TGI [55]: 25.2 µM
- GI50 [56]: 4.82 µM
- TGI [56]: 18.2 µM
- GI50 [57]: 10.6 µM
- TGI [57]: 22.8 µM
